Laboratory results taken from patent US8017611B2, “Pyridine and pyrazine derivatives -083” (AstraZeneca AB, priority 2007, dated 2011).

Biological target: T1, recombinant Axl tyrosine kinase (Homo sapiens, UniProt P30530)
T1 construct: encompassing amino acids 473 to 894 of Axl; GST (N); made in house; host or cells: SF126 insect cells
T1 sequence (P30530 473-894): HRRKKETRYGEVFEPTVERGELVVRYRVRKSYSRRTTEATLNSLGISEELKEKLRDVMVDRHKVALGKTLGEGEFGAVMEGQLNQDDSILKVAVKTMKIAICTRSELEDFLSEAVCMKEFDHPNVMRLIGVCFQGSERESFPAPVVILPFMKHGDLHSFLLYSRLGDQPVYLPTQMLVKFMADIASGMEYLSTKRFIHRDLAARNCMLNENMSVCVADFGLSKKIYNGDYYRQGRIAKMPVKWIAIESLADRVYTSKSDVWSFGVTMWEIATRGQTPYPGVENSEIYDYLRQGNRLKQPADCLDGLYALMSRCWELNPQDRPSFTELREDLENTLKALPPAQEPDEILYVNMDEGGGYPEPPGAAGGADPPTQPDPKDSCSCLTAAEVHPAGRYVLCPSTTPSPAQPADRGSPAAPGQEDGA
Test: In vitro Axl kinase assay (AlphaScreen), Test (a)
Format: biochemical
Details: test compound at 1 μM; first value quoted

Compound | % Axl tyrosine kinase inhibition at 1 μM concentration [%]
Nc1ncc(-c2ccc(C(=O)N3CCN(Cc4ccccn4)CC3)cc2)cc1-c1nc2ncccc2o1 [Example 45B.4] | 99.6
Nc1ncc(-c2ccc(C(=O)N3CCC(N4CCCC4)CC3)cc2)cc1-c1nc2ncccc2o1 [Example 45B.5] | 99.9
CN(C)C(=O)CN1CCN(C(=O)c2ccc(-c3cnc(N)c(-c4nc5ncccc5o4)c3)cc2)CC1 [Example 45B.6] | 95.9
CN(C)C(=O)CN1CCC(n2cc(-c3cnc(N)c(-c4nc5ncccc5o4)c3)cn2)CC1 [Example 53.1] | 99.7
CNC(=O)CN1CCC(n2cc(-c3cnc(N)c(-c4nc5ncccc5o4)c3)cn2)CC1 [Example 53.2] | 97.8
NC(=O)CN1CCC(n2cc(-c3cnc(N)c(-c4nc5ncccc5o4)c3)cn2)CC1 [Example 53.3] | 98.8
CC(C)N1CCC(n2cc(-c3cnc(N)c(-c4nc5ncccc5o4)c3)cn2)CC1 [Example 53.4] | 99.2
Nc1ncc(-c2cnn(C3CCN(CCO)CC3)c2)cc1-c1nc2ncccc2o1 [Example 53.5] | 100.0
NC(=O)CN1CCC(n2cc(-c3cnc(N)c(-c4nc5ccccc5o4)c3)cn2)CC1 [Example 53.6] | 100.0
CN(C)C(=O)CN1CCC(n2cc(-c3cnc(N)c(-c4nc5ccccc5o4)c3)cn2)CC1 [Example 53.8] | 99.9
CS(=O)(=O)N1CCC(n2cc(-c3cnc(N)c(-c4nc5ncccc5o4)c3)cn2)CC1 [Example 55.1] | 99.0
Nc1ncc(-c2cnn(C3CCN(S(=O)(=O)C4CC4)CC3)c2)cc1-c1nc2ncccc2o1 [Example 55.2] | 98.8
COC(=O)N1CCC(n2cc(-c3cnc(N)c(-c4nc5ncccc5o4)c3)cn2)CC1 [Example 55.3] | 99.5
CC(=O)N1CCC(n2cc(-c3cnc(N)c(-c4nc5ncccc5o4)c3)cn2)CC1 [Example 57.1] | 98.5
Nc1ncc(-c2cnn(C3CCN(C(=O)CO)CC3)c2)cc1-c1nc2ncccc2o1 [Example 57.2] | 99.4
C[C@H](O)C(=O)N1CCC(n2cc(-c3cnc(N)c(-c4nc5ncccc5o4)c3)cn2)CC1 [Example 57.3] | 98.7
CC(=O)N1CCC(n2cc(-c3cnc(N)c(-c4nc5cccnc5o4)c3)cn2)CC1 [Example 57.4] | 99.3
COCC(=O)N1CCC(n2cc(-c3cnc(N)c(-c4nc5cccnc5o4)c3)cn2)CC1 [Example 57.5] | 99.8
Nc1ncc(-c2cnn(C3CCN(C(=O)CO)CC3)c2)cc1-c1nc2cccnc2o1 [Example 57.6] | 99.8
C[C@H](O)C(=O)N1CCC(n2cc(-c3cnc(N)c(-c4nc5cccnc5o4)c3)cn2)CC1 [Example 57.7] | 99.6

Compound | % Axl tyrosine kinase inhibition at 1 μM concentration [%]
COCCC(=O)N1CCC(n2cc(-c3cnc(N)c(-c4nc5ncccc5o4)c3)cn2)CC1 [Example 59.1] | 99.3
CO[C@H](C)C(=O)N1CCC(n2cc(-c3cnc(N)c(-c4nc5ncccc5o4)c3)cn2)CC1 [Example 59.2] | 98.1
CC(=O)NCC(=O)N1CCC(n2cc(-c3cnc(N)c(-c4nc5ncccc5o4)c3)cn2)CC1 [Example 59.3] | 98.9
CC(=O)NCCC(=O)N1CCC(n2cc(-c3cnc(N)c(-c4nc5ncccc5o4)c3)cn2)CC1 [Example 59.4] | 98.9
COCCOCC(=O)N1CCC(n2cc(-c3cnc(N)c(-c4nc5ncccc5o4)c3)cn2)CC1 [Example 59.5] | 99.7
CN(C)CCC(=O)N1CCC(n2cc(-c3cnc(N)c(-c4nc5ncccc5o4)c3)cn2)CC1 [Example 59.6] | 99.9
CN(C)CC(=O)N1CCC(n2cc(-c3cnc(N)c(-c4nc5cccnc5o4)c3)cn2)CC1 [Example 59.7] | 99.6
COCCC(=O)N1CCC(n2cc(-c3cnc(N)c(-c4nc5cccnc5o4)c3)cn2)CC1 [Example 59.8] | 98.2
CO[C@H](C)C(=O)N1CCC(n2cc(-c3cnc(N)c(-c4nc5cccnc5o4)c3)cn2)CC1 [Example 59.9] | 99.1
CC(=O)NCCC(=O)N1CCC(n2cc(-c3cnc(N)c(-c4nc5cccnc5o4)c3)cn2)CC1 [Example 59.11] | 99.0
CN(C)CCC(=O)N1CCC(n2cc(-c3cnc(N)c(-c4nc5cccnc5o4)c3)cn2)CC1 [Example 59.13] | 99.7
N#Cc1nn(C2CCNCC2)cc1-c1cnc(N)c(-c2nc3ccccc3o2)c1 [Example 62.1] | 100.0
CN(C)C(=O)c1nn(C2CCNCC2)cc1-c1cnc(N)c(-c2nc3ccccc3o2)c1 [Example 62.2] | 98.8
CN(C)c1nn(C2CCNCC2)cc1-c1cnc(N)c(-c2nc3ccccc3o2)c1 [Example 62.3] | 99.9
CNC(=O)c1nn(C2CCNCC2)cc1-c1cnc(N)c(-c2nc3ccccc3o2)c1 [Example 62.4] | 99.8
NC(=O)c1nn(C2CCNCC2)cc1-c1cnc(N)c(-c2nc3ccccc3o2)c1 [Example 62.5] | 99.5
Nc1ncc(-c2cn(C3CCNCC3)nc2CO)cc1-c1nc2c(F)cccc2o1 [Example 62.6] | 100.0
COCc1nn(C2CCNCC2)cc1-c1cnc(N)c(-c2nc3c(F)cccc3o2)c1 [Example 62.7] | 100.0
Cc1nn(C2CCNCC2)cc1-c1cnc(N)c(-c2nc3c(C#N)cccc3o2)c1 [Example 62.11] | 99.8
COc1cccc2nc(-c3cc(-c4cn(C5CCNCC5)nc4CO)cnc3N)oc12 [Example 62.13] | 100.0

Same assay, conditions: test compound at 1 μM; first value quoted; read-out: % Axl tyrosine kinase inhibition at 1 μM concentration

Compound | inhibition at 1 µM [%]
Nc1ncc(-c2cccc(S(=O)(=O)CCC3CCNCC3)c2)cc1-c1nc2ccccc2o1 [Example 46, 3-(1,3-Benzoxazol-2-yl)-5-[3-[2-(4-piperidyl)ethylsulphonyl]phenyl]pyridin-2-amine] | 95.9
CCNS(=O)(=O)c1cccc(-c2cnc(N)c(-c3nc4ccccc4o3)c2)c1 [Example 48, 3-[6-Amino-5-(1,3-benzoxazol-2-yl)-3-pyridyl]-N-ethyl-benzenesulphonamide] | 93.5
Nc1ncc(-c2cccc(N3CCOCC3)c2)nc1-c1nc2ccccc2s1 [Example 49, 3-(1,3-Benzothiazol-2-yl)-5-(3-morpholinophenyl)pyrazin-2-amine] | 73.4
Nc1ncc(-c2cccc(CC(=O)O)c2)nc1-c1nc2ccc(F)cc2o1 [Example 50, 2-[3-[5-amino-6-(6-fluoro-1,3-benzoxazol-2-yl)pyrazin-2-yl]phenyl]acetic acid] | 47.6
CNC(=O)[C@@H]1C[C@@H](n2cc(-c3cnc(N)c(-c4nc5ccccc5o4)c3)cn2)CN1 [Example 51, (2S,4R)-4-[4-[6-amino-5-(1,3-benzoxazol-2-yl)-3-pyridyl]pyrazol-1-yl]-N-methyl-pyrrolidine-2-carboxamide] | 99.9
CCN1CCC(n2cc(-c3cnc(N)c(-c4nc5ncccc5o4)c3)cn2)CC1 [Example 52, 5-[1-(1-ethyl-4-piperidyl)pyrazol-4-yl]-3-oxazolo[4,5-b]pyridin-2-yl-pyridin-2-amine] | 99.8
COCCOC(=O)N1CCC(n2cc(-c3cnc(N)c(-c4nc5ncccc5o4)c3)cn2)CC1 [Example 54, 2-methoxyethyl 4-[4-(6-amino-5-oxazolo[4,5-b]pyridin-2-yl-3-pyridyl)pyrazol-1-yl]piperidine-1-carboxylate] | 99.5
COCC(=O)N1CCC(n2cc(-c3cnc(N)c(-c4nc5ncccc5o4)c3)cn2)CC1 [Example 56, 1-[4-[4-(6-amino-5-oxazolo[4,5-b]pyridin-2-yl-3-pyridyl)pyrazol-1-yl]-1-piperidyl]-2-methoxy-ethanone] | 99.3
CN(C)CC(=O)N1CCC(n2cc(-c3cnc(N)c(-c4nc5ncccc5o4)c3)cn2)CC1 [Example 58, 1-[4-[4-(6-amino-5-oxazolo[4,5-b]pyridin-2-yl-3-pyridyl)pyrazol-1-yl]-1-piperidyl]-2-dimethylamino-ethanone] | 99.5
CC(O)c1nn(C2CCNCC2)cc1-c1cnc(N)c(-c2nc3ccccc3o2)c1 (stereo not shown) [Example 60, 1-[4-[6-amino-5-(1,3-benzoxazol-2-yl)-3-pyridyl]-1-(4-piperidyl)pyrazol-3-yl]ethanol] | 99.8
Nc1ncc(-c2cnn(C3CCNCC3)c2CO)cc1-c1nc2ccccc2o1 [Example 61, [4-[6-amino-5-(1,3-benzoxazol-2-yl)-3-pyridyl]-2-(4-piperidyl)pyrazol-3-yl]methanol] | 99.9

Same assay, conditions: test compound at 30 μM; read-out: % of Axl tyrosine kinase activity inhibited at a concentration of 30 μM

Compound | inhibition at 30 µM [%]
Nc1ncc(-c2cccc(S(=O)(=O)N3CCOCC3)c2)cc1-c1nc2ccccc2o1 [Example 47, 3-(1,3-Benzoxazol-2-yl)-5-(3-morpholinosulphonylphenyl)pyridin-2-amine] | 99.5
